Source: PubChem BioAssay (NCI)
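Cultured in 96-well plates, cells were exposed to test compound for 48 hours across five concentrations. TGI denotes the concentration required for complete inhibition of growth.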

Key:
Test in all cases: NCI-60 cell line screen, 48 h
SNB-19 CNS = system: SNB-19 CNS
ACHN renal = system: ACHN renal
KM12 colon = system: KM12 colon
SN12C renal = system: SN12C renal
SF-295 CNS = system: SF-295 CNS
U251 CNS = system: U251 CNS
OVCAR-4 ovarian = system: OVCAR-4 ovarian
MALME-3M melanoma = system: MALME-3M melanoma
HL-60(TB) leukemia = system: HL-60(TB) leukemia
K-562 leukemia = system: K-562 leukemia
NCI-H460 lung = system: NCI-H460 lung
SK-MEL-28 melanoma = system: SK-MEL-28 melanoma
MOLT-4 leukemia = system: MOLT-4 leukemia
EKVX NSCLC = system: EKVX NSCLC
HOP-62 NSCLC = system: HOP-62 NSCLC
HCC-2998 colon = system: HCC-2998 colon
SNB-75 CNS = system: SNB-75 CNS
NCI-H226 lung = system: NCI-H226 lung
NCI/ADR-RES ovarian = system: NCI/ADR-RES ovarian
UACC-257 melanoma = system: UACC-257 melanoma
786-0 renal = system: 786-0 renal
MDA-N = system: MDA-N
HOP-92 NSCLC = system: HOP-92 NSCLC
TK-10 renal = system: TK-10 renal
UACC-62 melanoma = system: UACC-62 melanoma
PC-3 prostate = system: PC-3 prostate
NCI-H522 lung = system: NCI-H522 lung
COLO 205 colon = system: COLO 205 colon
HCT-15 colon = system: HCT-15 colon
BT-549 breast = system: BT-549 breast
M14 melanoma = system: M14 melanoma
NCI-H23 lung = system: NCI-H23 lung
MCF7 breast = system: MCF7 breast
RXF 393 renal = system: RXF 393 renal
HCT-116 colon = system: HCT-116 colon
MDA-MB-231 breast = system: MDA-MB-231 breast
SK-OV-3 ovarian = system: SK-OV-3 ovarian
IGROV1 ovarian = system: IGROV1 ovarian
SW-620 colon = system: SW-620 colon
T-47D breast = system: T-47D breast
SF-539 CNS = system: SF-539 CNS
HT29 colon = system: HT29 colon
OVCAR-5 ovarian = system: OVCAR-5 ovarian
A549 NSCLC = system: A549 NSCLC
OVCAR-3 ovarian = system: OVCAR-3 ovarian
SF-268 CNS = system: SF-268 CNS
CCRF-CEM leukemia = system: CCRF-CEM leukemia
RPMI-8226 leukemia = system: RPMI-8226 leukemia
OVCAR-8 ovarian = system: OVCAR-8 ovarian
HS 578T breast = system: HS 578T breast
SK-MEL-5 melanoma = system: SK-MEL-5 melanoma
SR leukemia = system: SR leukemia
DU-145 prostate = system: DU-145 prostate
MDA-MB-435 = system: MDA-MB-435
SK-MEL-2 melanoma = system: SK-MEL-2 melanoma
UO-31 renal = system: UO-31 renal
LOX IMVI melanoma = system: LOX IMVI melanoma
A498 renal = system: A498 renal
CAKI-1 renal = system: CAKI-1 renal

For `CCn1c(-c2ccc(OC)cc2)nc2c1C(=O)c1ccccc1C2=O`, the TGI (SNB-19 CNS) was > 100 µM, the TGI (ACHN renal) was > 100 µM and the TGI (KM12 colon) was > 100 µM. For the same compound, the TGI (SN12C renal) was > 100 µM, the TGI (SF-295 CNS) was > 100 µM and the TGI (U251 CNS) was > 100 µM. The TGI (OVCAR-4 ovarian) was > 100 µM, the TGI (MALME-3M melanoma) was > 100 µM and the TGI (HL-60(TB) leukemia) was > 100 µM. For the same compound, the TGI (K-562 leukemia) was > 100 µM, the TGI (NCI-H460 lung) was > 100 µM and the TGI (SK-MEL-28 melanoma) was > 100 µM. The TGI (MOLT-4 leukemia) was > 100 µM, the TGI (EKVX NSCLC) was > 100 µM and the TGI (HOP-62 NSCLC) was > 100 µM. For the same compound, the TGI (HCC-2998 colon) was > 100 µM, the TGI (SNB-75 CNS) was > 100 µM and the TGI (NCI-H226 lung) was > 100 µM. For the same compound, the TGI (NCI/ADR-RES ovarian) was > 100 µM, the TGI (UACC-257 melanoma) was > 100 µM and the TGI (786-0 renal) was > 100 µM. The TGI (MDA-N) was > 100 µM, the TGI (HOP-92 NSCLC) was > 100 µM and the TGI (TK-10 renal) was > 100 µM. The TGI (UACC-62 melanoma) was > 100 µM, the TGI (PC-3 prostate) was > 100 µM and the TGI (NCI-H522 lung) was > 100 µM. The TGI (COLO 205 colon) was > 100 µM, the TGI (HCT-15 colon) was > 100 µM and the TGI (BT-549 breast) was > 100 µM. For the same compound, the TGI (M14 melanoma) was > 100 µM, the TGI (NCI-H23 lung) was > 100 µM and the TGI (MCF7 breast) was > 100 µM. For the same compound, the TGI (RXF 393 renal) was > 100 µM, the TGI (HCT-116 colon) was > 100 µM and the TGI (MDA-MB-231 breast) was > 100 µM. For the same compound, the TGI (SK-OV-3 ovarian) was > 100 µM, the TGI (IGROV1 ovarian) was > 100 µM and the TGI (SW-620 colon) was > 100 µM. The TGI (T-47D breast) was > 100 µM, the TGI (SF-539 CNS) was > 100 µM and the TGI (HT29 colon) was > 100 µM. The TGI (OVCAR-5 ovarian) was > 100 µM, the TGI (A549 NSCLC) was > 100 µM and the TGI (OVCAR-3 ovarian) was > 100 µM. For the same compound, the TGI (SF-268 CNS) was > 100 µM, the TGI (CCRF-CEM leukemia) was > 100 µM and the TGI (RPMI-8226 leukemia) was > 100 µM. The TGI (OVCAR-8 ovarian) was > 100 µM, the TGI (HS 578T breast) was > 100 µM and the TGI (SK-MEL-5 melanoma) was > 100 µM. The TGI (SR leukemia) was > 100 µM, the TGI (DU-145 prostate) was > 100 µM and the TGI (MDA-MB-435) was > 100 µM.

With `Cc1cn(CCC(N)C(=O)O)c(=O)[nH]c1=O` (centres undefined) the TGI (SNB-19 CNS) was > 100 µM, the TGI (ACHN renal) was > 100 µM and the TGI (KM12 colon) was > 100 µM. The TGI (SN12C renal) was > 100 µM, the TGI (SF-295 CNS) was > 100 µM and the TGI (U251 CNS) was > 100 µM. For the same compound, the TGI (OVCAR-4 ovarian) was > 100 µM, the TGI (MALME-3M melanoma) was > 100 µM and the TGI (HL-60(TB) leukemia) was > 100 µM. The TGI (K-562 leukemia) was > 100 µM, the TGI (NCI-H460 lung) was > 100 µM and the TGI (SK-MEL-28 melanoma) was > 100 µM. For the same compound, the TGI (MOLT-4 leukemia) was > 100 µM, the TGI (EKVX NSCLC) was > 100 µM and the TGI (HOP-62 NSCLC) was > 100 µM. The TGI (SNB-75 CNS) was > 100 µM, the TGI (NCI-H226 lung) was > 100 µM and the TGI (SK-MEL-2 melanoma) was > 100 µM. For the same compound, the TGI (UO-31 renal) was > 100 µM, the TGI (NCI/ADR-RES ovarian) was > 100 µM and the TGI (UACC-257 melanoma) was > 100 µM. The TGI (786-0 renal) was > 100 µM, the TGI (MDA-N) was > 100 µM and the TGI (HOP-92 NSCLC) was > 100 µM. For the same compound, the TGI (TK-10 renal) was > 100 µM, the TGI (UACC-62 melanoma) was > 100 µM and the TGI (PC-3 prostate) was > 100 µM. For the same compound, the TGI (NCI-H522 lung) was > 100 µM, the TGI (COLO 205 colon) was > 100 µM and the TGI (HCT-15 colon) was > 100 µM. The TGI (BT-549 breast) was > 100 µM, the TGI (M14 melanoma) was > 100 µM and the TGI (NCI-H23 lung) was > 100 µM. For the same compound, the TGI (MCF7 breast) was > 100 µM, the TGI (RXF 393 renal) was > 100 µM and the TGI (HCT-116 colon) was > 100 µM. The TGI (MDA-MB-231 breast) was > 100 µM, the TGI (LOX IMVI melanoma) was > 100 µM and the TGI (SK-OV-3 ovarian) was > 100 µM. For the same compound, the TGI (IGROV1 ovarian) was > 100 µM, the TGI (SW-620 colon) was > 100 µM and the TGI (T-47D breast) was > 100 µM. The TGI (SF-539 CNS) was > 100 µM, the TGI (HT29 colon) was > 100 µM and the TGI (OVCAR-5 ovarian) was > 100 µM. For the same compound, the TGI (A549 NSCLC) was > 100 µM, the TGI (OVCAR-3 ovarian) was > 100 µM and the TGI (SF-268 CNS) was > 100 µM. For the same compound, the TGI (CCRF-CEM leukemia) was > 100 µM, the TGI (A498 renal) was > 100 µM and the TGI (RPMI-8226 leukemia) was > 100 µM. The TGI (OVCAR-8 ovarian) was > 100 µM, the TGI (HS 578T breast) was > 100 µM and the TGI (SK-MEL-5 melanoma) was > 100 µM. For the same compound, the TGI (SR leukemia) was > 100 µM, the TGI (DU-145 prostate) was > 100 µM and the TGI (MDA-MB-435) was > 100 µM.

For `CC(C)(C)c1cc(C(=O)C2Cc3ccccc3C(=O)O2)cc(C(C)(C)C)c1O` (centres undefined), the TGI (SNB-19 CNS) was 24.7 µM, the TGI (ACHN renal) was 40.3 µM and the TGI (KM12 colon) was 32.1 µM. For the same compound, the TGI (SN12C renal) was 26.5 µM, the TGI (SF-295 CNS) was 35.1 µM and the TGI (U251 CNS) was 22.2 µM. For the same compound, the TGI (OVCAR-4 ovarian) was 65.7 µM, the TGI (MALME-3M melanoma) was 29.6 µM and the TGI (HL-60(TB) leukemia) was 35 µM. For the same compound, the TGI (CAKI-1 renal) was 52.5 µM, the TGI (K-562 leukemia) was > 100 µM and the TGI (NCI-H460 lung) was 23.1 µM. For the same compound, the TGI (SK-MEL-28 melanoma) was 36.8 µM, the TGI (MOLT-4 leukemia) was > 100 µM and the TGI (EKVX NSCLC) was 25.9 µM. The TGI (HOP-62 NSCLC) was 30.8 µM, the TGI (SNB-75 CNS) was 33.8 µM and the TGI (NCI-H226 lung) was 35.5 µM. For the same compound, the TGI (SK-MEL-2 melanoma) was 23.9 µM, the TGI (UO-31 renal) was 23.2 µM and the TGI (NCI/ADR-RES ovarian) was 50.5 µM. It also gave a TGI (UACC-257 melanoma) of 23.9 µM, a TGI (786-0 renal) of 24.8 µM and a TGI (MDA-N) of 23.9 µM. For the same compound, the TGI (HOP-92 NSCLC) was 45.3 µM, the TGI (TK-10 renal) was 28.6 µM and the TGI (UACC-62 melanoma) was 26.3 µM. For the same compound, the TGI (PC-3 prostate) was 28.2 µM, the TGI (NCI-H522 lung) was 27.8 µM and the TGI (COLO 205 colon) was 33.1 µM. The TGI (HCT-15 colon) was 37 µM, the TGI (BT-549 breast) was 42.6 µM and the TGI (M14 melanoma) was 25.6 µM. It also gave a TGI (NCI-H23 lung) of 35.8 µM, a TGI (MCF7 breast) of 38.6 µM and a TGI (RXF 393 renal) of 27.7 µM. It also gave a TGI (HCT-116 colon) of 21.9 µM, a TGI (MDA-MB-231 breast) of 31.7 µM and a TGI (LOX IMVI melanoma) of 26.5 µM. For the same compound, the TGI (SK-OV-3 ovarian) was 56.3 µM, the TGI (IGROV1 ovarian) was 32.6 µM and the TGI (SW-620 colon) was 50.4 µM. The TGI (T-47D breast) was > 100 µM, the TGI (SF-539 CNS) was 31.7 µM and the TGI (HT29 colon) was 35.5 µM. It also gave a TGI (OVCAR-5 ovarian) of 31.8 µM, a TGI (A549 NSCLC) of 54.4 µM and a TGI (OVCAR-3 ovarian) of 25.5 µM. It also gave a TGI (SF-268 CNS) of 40.6 µM, a TGI (CCRF-CEM leukemia) of 34.7 µM and a TGI (A498 renal) of 26.7 µM. The TGI (RPMI-8226 leukemia) was 42.1 µM, the TGI (OVCAR-8 ovarian) was 33.3 µM and the TGI (HS 578T breast) was > 100 µM. For the same compound, the TGI (SK-MEL-5 melanoma) was 25.1 µM, the TGI (SR leukemia) was 51.2 µM and the TGI (DU-145 prostate) was 28.3 µM. For the same compound, the TGI (MDA-MB-435) was 32.6 µM.
